According to US10039806B2, “Methods and compositions for treating antiprogestin-resistant cancers” (Fundación Sales, priority 2011, dated 2018):

Columns and labels:
59-HI tumors = assay: Constitutive-resistant tumor transplanted s.c. in BALB/c mice; assay type: in vivo, mouse
Protocol: (§1) C4-2-HI, 59-HI, and C4-HIR tumors were transplanted s.c nearby the mammary gland 4th in syngenic mice, and measured every 2 days (length and width). Treatments were initiated when the tumors were palpable. […] The mice were inoculated intraperitoneally (i.p.) with 0.75 mg/kg 5azadC (for C4-2-HI and C4-HIR tumors) or 1 mg/kg 5azadC (for 59-HI tumors) every other day. All the experiments were repeated twice using five mice per group. The animals were euthanized after 13 days of treatment, and tumor samples were removed and frozen at −80° C. or fixed in 10% formaldehyde.
(§2) Cytosolic or nuclear extracts were processed for western blots as described previously. The cells were lysed using Mammalian Protein Extraction Reagent (Pierce, Rockford, Ill.) according the manufacturer's instructions. The western blot membranes were incubated with antibodies against PR (C-19, Santa Cruz Biotech, CA, or Ab-7, Neomarkers, Lab Vision Corp, Fremont, Calif.), PRB (Ab-6, Neomarkers), ERKs (SC-94, Santa Cruz Biotech), E-Cad (610182, BD), Actin (1-19, Santa Cruz Biotech), DnmtI, Dnmt3a and Dnmt3b (H-300, H-295, and H-230, respectively, Santa Cruz Biotech), RARβ (SC-14028, Santa Cruz Biotech), PTEN Ab32199, Abcam), p16 (SC-1207, Santa Cruz Biotech), Rb (SC-50, Santa Cruz Biotech), or glucocorticoid receptors (GRs) (SC-1004, Santa Cruz Biotech) overnight at 4° C., at a concentration of 2 μg/ml in PBST (0.8% NaCl, 0.02% KCl, 0.144% Na2PO4, 0.024% KH2PO4, pH 7.4, 0.1% Tween 20). The band intensities from 3 to 4 different tumor samples indifferent western blots were quantified using Image Quant software.
(§3) Sections of formalin-fixed, paraffin-embedded tissue were processed as previously described and stained with the PRA-specific antibody (C-19) using the avidin-biotin-peroxidase complex technique (Vectastain Elite ABC kit; Vector), as described previously.
(§4) H&E stained sections of livers, spleens, and kidneys from the 5azadC-treated mice (1 mg/kg or 0.75 mg/kg/every other day; n=5) were studied by an expert mouse pathologist. The percentage of tumor stoma versus tumor parenchyma was quantified with the ImageJ software in treated and untreated tumors. The stromal area in relation to the total tumor area was calculated in five representative fields of each sample, using 400× magnification, in three different tumor samples of each group, and the mean±SEM was calculated. Mitotic and apoptotic indices were counted in 10 and 15 high-power fields (HPFs), respectively, of each section, using 1000× magnification, and expressed as the mean±SEM of the percentage of the ratios between the total number of events (mitosis or apoptosis) and the total cell number per HPF. Mitotic figures were identified morphologically by the condensed “hairy” aspect of the chromosomes. Morphological identification of apoptosis was performed according to criteria previously reported, which correlated with the deoxynucleotidyl transferase mediated dUTP-biotin nick end labeling (TUNEL) method.
as §1, with “C4-2-HI” for “C4-2-HI, 59-HI,”, “59-HI” for “C4-HIR”, “every other day” for “(for C4-2-HI”, “s.c. with” for “C4-HIR tumors) or”, “TSA” for “5azadC (for 59-HI tumors)”, “−80 C” for “−80° C.”

C4-2-HI tumors = assay: as above; assay type: in vivo, mouse
Protocol: as §1, §2, §3, §4
as §1, with “C4-2-HI” for “C4-2-HI, 59-HI,”, “59-HI” for “C4-HIR”, “every other day” for “(for C4-2-HI”, “s.c. with” for “C4-HIR tumors) or”, “TSA” for “5azadC (for 59-HI tumors)”, “−80 C” for “−80° C.”

C4-2-HI and 59-HI cells = assay: (3H)-thymidine incorporation with 5azadC and RU-486 in 10% FCS; assay type: cell-based, mouse; conditions: 5 μM 5azadC, 100 nM RU-486; P<0.001
Protocol: (3H)-thymidine-uptake was used as an indirect method to evaluate cell proliferation. In brief, cells were seeded into 96-well microplates. After attachment (24 h), the cells were incubated for 24 h with 1% steroid-stripped FCS and then for 48 h with the experimental solutions to be tested in 1% chFCS. Fifty percent of the medium was replaced with fresh medium every 24 h. […] In experiments in which 5azadC was used, the experiments were carried out using proliferating cells (presence of 10% FCS) to guarantee the effect of the demethylating agent. Three different experiments were made using octuplicates, and the means and standard deviations of one representative experiment of the other three are shown.

GR in C4-2-HI cells = assay: GR expression in vitro (immunofluorescence); assay type: cell-based, mouse; conditions: 5×10^-7 M, 96 h
Protocol: Frozen sections or cells grown in chamber slides, fixed in 70% ethanol for 1 h, were incubated with antibodies recognizing Dnmt1, Dnmt3a, Dnmt3b, PRA (Ab-7), RPB (Ab-6), or GR, in blocking buffer at a 1:200 dilution overnight at 4° C. They were then incubated with a FITC conjugated anti-rabbit (FI-1000, Vector Laboratories Burlingame, Calif.; 1:100 dilution) secondary antibody for 1 h at room temperature. Nuclei were stained with propidium iodide (PI, Sigma). The slides were mounted using Vectashield (Vector Laboratories). Stained cells were analyzed using a Nikon Eclipse E800 Laser Confocal Microscope and EZ-C1 2.20 software. Cell staining was quantified using Image Quant software.

[1] = test system: PRA and PRB in C4-2-HI and 59-HI cells; assay: PR isoform expression after 5azadC in vitro (immunofluorescence, western blot); assay type: cell-based, mouse; conditions: 96 h
Protocol: C4-2-HI and 59-HI epithelial cells from primary cell cultures were allowed to attach for 24 h. The medium was replaced with fresh medium with 10% FCS, and 5azadC was added for 96 h. The medium was refreshed daily. Cells were processed for western blot or immunofluorescence to evaluate PR expression.
Cytosolic or nuclear extracts were processed for western blots as described previously. The cells were lysed using Mammalian Protein Extraction Reagent (Pierce, Rockford, Ill.) according the manufacturer's instructions. […] The band intensities from 3 to 4 different tumor samples indifferent western blots were quantified using Image Quant software.
Frozen sections or cells grown in chamber slides, fixed in 70% ethanol for 1 h, were incubated with antibodies recognizing Dnmt1, Dnmt3a, Dnmt3b, PRA (Ab-7), RPB (Ab-6), or GR, in blocking buffer at a 1:200 dilution overnight at 4° C. […] Stained cells were analyzed using a Nikon Eclipse E800 Laser Confocal Microscope and EZ-C1 2.20 software. Cell staining was quantified using Image Quant software.

[2] = Histology of livers, spleens and kidneys of 5azadC-treated mice; assay type: in vivo, mouse; conditions: 0.75 and 1 mg/kg every other day
Protocol: as §4

Nc1ncn([C@H]2C[C@H](O)[C@@H](CO)O2)c(=O)n1 [5azadC, 5-aza-2′-deoxycytidine]
PRA staining (immunohistochemistry) (59-HI tumors; 5azadC-treated tumors): only cytoplasmic and perinuclear PRA staining | PRA expression (western blots) (59-HI tumors; P<0.01): increase in PRA expression | tumor growth (59-HI tumors; RU-486 12 mg/kg/day s.c., 5azadC 1 mg/kg every other day i.p., 13 days): no significant differences | PRB level (59-HI tumors; not shown): not significantly modified | PRA staining (immunohistochemistry) (C4-2-HI tumors; 5azadC-treated vs control tumors): increase in nuclear and cytoplasmic PRA staining | PRA expression (western blots) (C4-2-HI tumors; P<0.01): increase in PRA expression | tumor growth (C4-2-HI tumors; RU-486 12 mg/kg/day s.c., 5azadC 0.75 mg/kg every other day i.p., 13 days): no significant differences | PRB level (C4-2-HI tumors; not shown): not significantly modified | expression of GR (western blots) (C4-2-HI tumors; tumors from 5azadC-treated mice): decreased | cell proliferation, (3H)-thymidine incorporation (C4-2-HI and 59-HI cells): did not alter cell proliferation | expression of GR (immunofluorescence) (GR in C4-2-HI cells): decreased | PRA expression ([1]; 5×10^-7 M (C4-2-HI), 5×10^-6 M (59-HI), P<0.001): increase in PRA expression | PRB staining (Ab-6 antibody) [1]: no significant changes | Histological evaluation of liver, spleen, and kidney [2]: no signs of toxicity
